Experimental data taken from publication PMC8807614 (Scientific Reports, 2022).
Entries after “also recorded” stand apart in the source; their conditions may differ. Each block holds one molecule with its values, some of them ahead of it. Peptide text beside a SMILES is read from it.

Experiments:
[1] = target: T1, human prolactin releasing peptide receptor (GPR10) (Homo sapiens, UniProt P49683); test: GPR10 functional activity assay (IP1, HTRF); type: cell-based; settings: Chem-1 cells stably expressing human GPR10, 10.000 cells/well; HTRF IP1 (CisBio); 30 min at 37 °C; IP1 stimulation buffer with 0.05% casein; 11 concentrations
T1 sequence (P49683 1-370): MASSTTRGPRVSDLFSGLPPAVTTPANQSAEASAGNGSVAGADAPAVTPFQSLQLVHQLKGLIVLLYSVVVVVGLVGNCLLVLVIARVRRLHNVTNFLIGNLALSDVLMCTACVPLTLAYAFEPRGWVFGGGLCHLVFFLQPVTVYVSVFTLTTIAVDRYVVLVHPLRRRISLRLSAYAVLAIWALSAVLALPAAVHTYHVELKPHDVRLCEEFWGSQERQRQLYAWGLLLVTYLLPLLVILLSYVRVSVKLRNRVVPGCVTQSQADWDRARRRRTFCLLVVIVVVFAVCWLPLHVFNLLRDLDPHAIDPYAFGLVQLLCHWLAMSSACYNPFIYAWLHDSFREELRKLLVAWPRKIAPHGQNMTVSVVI

[2] = Plasma peptide concentrations 4 h after last dosing in DIO mice; type: in vivo, male C57BL/6 J mice; settings: treatment day 6, 1,250 nmol/kg SC BID
Experimental: (a) Body weight. (b) 24 h food intake. (c) total food intake during treatment phase. (d) total food intake during wash-out phase. (e) Plasma peptide concentrations as measured 4 h after last dosing (treatment day 6). Peptides were administered (SC, BID) at a dose of 1250 nmol/kg (n = 7–8 per group). **p < 0.01, ***p < 0.001 compared to vehicle.
Figure 4 Lipidated metabolites of GUB03385 robustly reduce body weight and food intake in DIO mice. Effect of subchronic treatment (days 0–6) with GUB08248, GUB08251, GUB10194 and GUB10195 followed by 7-day wash-out period (days 7–13, marked in grey). In vivo efficacy was compared to semaglutide (10 nmol/kg, SC, QD, n = 8). (a) Body weight. (b) 24 h food intake. (c) Total food intake during treatment phase. (d) Total food intake during wash-out phase. (e) Plasma peptide concentrations as measured 4 h after last dosing (treatment day 6).
Compounds were freshly prepared in vehicle (PBS with 0.1% BSA, pH 4) just prior to dosing. Semaglutide was purchased from Hoersholm Pharmacy (Hoersholm, Denmark). All animals were single housed two weeks prior to treatment and throughout the remaining of the study period. […] Body weight and food intake (24 h) were measured daily during the treatment period and one week after treatment. […]

human NPFF2R = human NPFF2R (Homo sapiens, UniProt Q9Y5X5); test: NPFF2R functional activity assay (cAMP, HTRF); type: cell-based; settings: CHO-K1 cells stably expressing human NPFF2R, 1500 cells/well; HTRF cAMP (CisBio); 3 µM forskolin (~90% activity level); 30 min; DPBS, 0.5 mM IBMX, 0.05% casein; 11 concentrations
Chain of human NPFF2R (Q9Y5X5 whole entry): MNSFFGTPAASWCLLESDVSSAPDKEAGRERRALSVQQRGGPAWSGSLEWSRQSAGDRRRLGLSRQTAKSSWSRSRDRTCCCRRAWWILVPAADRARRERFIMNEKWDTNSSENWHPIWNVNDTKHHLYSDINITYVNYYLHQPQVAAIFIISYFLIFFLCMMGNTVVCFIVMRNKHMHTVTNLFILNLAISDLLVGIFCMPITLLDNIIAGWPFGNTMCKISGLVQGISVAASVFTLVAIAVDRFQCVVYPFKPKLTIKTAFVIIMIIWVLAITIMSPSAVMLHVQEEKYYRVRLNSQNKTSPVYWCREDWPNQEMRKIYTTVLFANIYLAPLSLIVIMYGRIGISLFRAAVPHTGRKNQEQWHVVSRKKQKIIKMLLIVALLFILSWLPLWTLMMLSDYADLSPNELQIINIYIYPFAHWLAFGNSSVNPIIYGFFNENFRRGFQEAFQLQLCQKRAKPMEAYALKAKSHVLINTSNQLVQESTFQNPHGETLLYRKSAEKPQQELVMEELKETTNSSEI
Experimental: Figure 3 GPR10 and NPFF2R profiling of in vivo metabolites of GUB03385. […] (b) cAMP measurements in human NPFF2R CHO-K cells (HTRF technology, CisBio) at a fixed concentration of 3 µM forskolin after 30 min. incubation at room temperature with metabolites and the native peptide NPSF. Representative curves of three determinations.
The Homogenous Time Resolved Fluorescence (HTRF) technology optimized for Gq coupled receptors has thoroughly been described in the CisBio IP1 kit manual (#62IPAPEC) and in the cAMP assay kit manual for Gi coupled receptors (#62AM9PEC). Briefly, this technic is based on a competitive immunoassay using cryptate-labelled anti-cAMP or anti-IP1 antibodies and d2-labeled cAMP or IP1. In the absence of cellular cAMP or IP1, the anti-cryptate conjugate may get into proximity to the d2 conjugate and energy (FRET) can be transferred from cryptate to d2. Chem-1 cells stably expressing the human prolactin releasing peptide receptor (GPR10, Eurofins, # HTS057C) and irradiated CHO-K1 cells stably expressing the human NPFF2R (PerkinElmer, #ES-490-CF) were applied as cells in suspension, brought to life from frozen cell stocks immediately before assay performance. 384-Well (Corning, #4513) assay formats with a total assay volume of 20 µl were applied. GPR10 cells (10.000 cells/well) were incubated with agonist peptides and the NPFF2R cells (1500 cells/well) were incubated with agonist peptides and forskolin (~ 90% activity level) for 30 min at 37 °C using IP1 kit stimulation buffer and DPBS (Sigma, #D8537) containing 0.5 mM IBMX (Sigma, # I5879), receptively. Both stimulation buffers were supplemented with 0.05% casein (Sigma, # C4765-10 ml). After addition of HTRF® detection reagents and incubation with shaking (2400 rpm) for one hour at room temperature signals at 620 and 665 nm (raw counts: ratio of 665/620) were detected at a ClarioStar plate reader (BMG Labtech, Ortenberg, Germany). Concentration–response evaluation of compounds was performed with 11 concentrations of agonist peptides (covering 3 decades) and EC50 values were calculated by nonlinear regression using sigmoid concentration–response with variable slope. Data were analysed using GraphPad v9.1 software (GraphPad, La Jolla, CA).

DIO mice = test: In vivo efficacy of lipidated PrRP31 analogues in DIO mice (body weight, food intake); set-up: species or system male C57BL/6 J mice
Experimental: For all in vivo studies, male C57BL/6 J mice (5 weeks old, n = 7–8) were purchased from Janvier Labs (Le Genest Saint Isle, France). Individual animals were identified by implantable subcutaneous microchips (PetID Microchip, E-vet, Haderslev, Denmark). Mice were housed in a controlled environment (12 h light/dark cycle, lights on at 3 AM, 21 ± 2 °C, humidity 50 ± 10%) and had ad libitum access to tap water and regular chow (Altromin 1324, Brogaarden, Hørsholm, Denmark) or high-fat diet (60% fat, D12492 Research diet) for up to 47 weeks prior to the initiation of the study. All animal experiments were conducted in accordance to internationally accepted principles for the care and use of laboratory animals. All experiments were approved by The Animal Experimentation Council, Danish Veterinary and Food Administration (license #2013-15-2934-00784) and the Gubra ethics committee. All experiments complied with the ARRIVE guidelines.
Compounds were freshly prepared in vehicle (PBS with 0.1% BSA, pH 4) just prior to dosing. Semaglutide was purchased from Hoersholm Pharmacy (Hoersholm, Denmark). All animals were single housed two weeks prior to treatment and throughout the remaining of the study period. Mice were randomized to treatment according to body weight (n = 7–8 per group) and dosed subcutaneously (SC, 5 ml/kg) for a total of 7 days with vehicle (BID), semaglutide (10 nmol/kg, QD) or peptide analogues (1,250 nmol/kg, BID). All compounds were administered during the light phase. Body weight and food intake (24 h) were measured daily during the treatment period and one week after treatment. In vivo data were subjected to relevant statistical analyses using GraphPad v9.1 software (GraphPad, La Jolla, CA). Statistical evaluation was carried out using Dunnett’s test one-factor linear model (endpoint body weight, food intake, cumulative food intake). A p-value less than 0.05 was considered statistically significant.

[3] = plasma of DIO mice 4 h after last dosing on treatment day 6 (SC, BID); settings: DIO mice (male C57BL/6 J), up to 4 h after last dosing on treatment day 6
[4] = plasma from cardiac blood samples of DIO mice dosed with GUB03385 (SC); settings: DIO mice (male C57BL/6 J), up to 120 min

Molecule: CCCCCCCCCCCCCCCC(=O)N[C@@H](CCC(=O)NCCCC[C@H](NC(=O)[C@@H](NC(=O)[C@H](CCC(=O)O)NC(=O)[C@H](CCSC)NC(=O)[C@H](CO)NC(=O)[C@H](Cc1c[nH]cn1)NC(=O)[C@H](CCCNC(=N)N)NC(=O)[C@H](Cc1c[nH]cn1)NC(=O)[C@@H](NC(=O)[C@H](CCCNC(=N)N)NC(=O)[C@@H](N)CO)[C@@H](C)O)[C@@H](C)CC)C(=O)N[C@H](C(=O)N1CCC[C@H]1C(=O)N[C@@H](CC(=O)O)C(=O)N[C@H](C(=O)N[C@@H](CC(N)=O)C(=O)N1CCC[C@H]1C(=O)N[C@@H](C)C(=O)N[C@@H](Cc1c[nH]c2ccccc12)C(=O)N[C@@H](Cc1ccc(O)cc1)C(=O)N[C@@H](C)C(=O)N[C@@H](CO)C(=O)N[C@@H](CCCNC(=N)N)C(=O)NCC(=O)N[C@H](C(=O)N[C@@H](CCCNC(=N)N)C(=O)N1CCC[C@H]1C(=O)N[C@H](C(=O)NCC(=O)N[C@@H](CCCNC(=N)N)C(=O)N[C@@H](Cc1ccccc1)C(N)=O)C(C)C)[C@@H](C)CC)[C@@H](C)CC)[C@@H](C)O)C(=O)O [GUB02647] (HELM PEPTIDE1{S.R.T.H.R.H.S.M.E.I.K.T.P.D.I.N.P.A.W.Y.A.S.R.G.I.R.P.V.G.R.F.[am]}|PEPTIDE2{[CCCCCCCCCCCCCCCC(=O)[*:2]].[gGlu]}$PEPTIDE1,PEPTIDE2,11:R3-2:R2$$$V2.0)
EC50 [1]: 0.3 nM
plasma exposure 4 h after last dosing [2]: not detected in plasma; also recorded: undetectable in plasma
EC50 (human NPFF2R): 147 nM
effect on food intake (DIO mice; 1,250 nmol/kg SC BID days 0-6, wash-out days 7-13, 24 h food intake measured daily): significantly suppressed food intake during the treatment period, but not in the wash-out phase
body weight loss, day 7 (DIO mice; 1,250 nmol/kg SC BID for 7 days (days 0-6), after last dosing, n = 7-8 per group): 11.8 ± 1.0%
body weight loss, day 13 (DIO mice; 1,250 nmol/kg SC BID for 7 days, then 7-day wash-out, n = 7-8 per group): 8.1 ± 1.0%
weight loss (as summarised in discussion) (DIO mice; subchronic SC treatment with 1,250 nmol/kg BID, time point not stated): 8%

fragment found [3]: GUB08251
Molecule: SRGK*RPVGRF (K* lipid chain: C18 γE OEG OEG)

fragment found [3]: GUB10195
Molecule: SRGK*RPVGRF (K* lipid chain: C18DA γE OEG OEG)

Molecule: SRTHRHSMEIRTPDINPAWYASRGK*RPVGRF (K* lipid chain: C18 γE OEG OEG; C-terminally amidated)
fragment found [4]: GUB08247: ASRGK*RPVG (C18 γE OEG OEG), major, 30 min; also recorded: GUB08248: SRGK*RPVGRF (C18 γE OEG OEG), major, 30 min; also recorded: GUB08249: SRGK*RPVG (C18 γE OEG OEG), major, 30 min; also recorded: GUB08250: SRGK*RPV (C18 γE OEG OEG), major, 30 min; also recorded: GUB08251: GK*RPVGRF (C18 γE OEG OEG), major, 60 min; also recorded: GUB08252: K*RPVGR (C18 γE OEG OEG), major, 60 min; also recorded: GUB08253: K*RPVG (C18 γE OEG OEG), major, 60 min; also recorded: GUB08254: K*RPV (C18 γE OEG OEG), major, 60 min
